Source: US20090306032A1, “Use of solid lipid nanoparticles Comprising Cholesteryl Propionate and/or Cholesteryl Butyrate” (priority 2005, published 2009)
pIC50: −log10 of the molar value.

Key:
[1] = system: adhesion of polymorphonuclear cells to HUVEC cells; test: Adhesion assay, PMN to HUVEC, IL-1β stimulus; format: cell-based; details: Homo sapiens, 4 h, read-out: inhibition of the adhesion
Protocol: (§1) Human umbilical vein endothelial cells (HUVEC cells) were suitably treated, grown to confluence in 24 well plates, washed and maintained for one day in M199 medium supplemented with 10% BCS (Bovine Calf Serum).
(§2) Polymorphonuclear cells (PMN) were prepared from citrated venous blood obtained from healthy volunteers. Polymorphonuclear cells (PMN), at the concentration of 10^7 cells/ml were labeled with fluorescein diacetate (5 μg/ml) for 30 minutes at 37° C., washed with BSS and plated at the concentration of 10^6 cells per well in a final volume of 0.25 ml of BSS.
(§3) The antiadhesive effects of cholesteryl butyrate nanoparticles prepared in example 1 and of sodium butyrate were measured by an adhesion assay. In detail, human polymorphonuclear cells and HUVEC endothelial cells were incubated with increasing concentrations of cholesteryl butyrate or sodium butyrate nanoparticles in presence of a substance, PAF or IL-1β, which induces adhesion of PMN cells to endothelial HUVEC cells. Adhesion was then assessed by fluorescence microimaging.
b) The effect of cholesteryl butyrate nanoparticles prepared in example 1 or of sodium butyrate on adhesion of polymorphonuclear cells to HUVEC cells was also examined in presence of the adhesion stimulus provided by IL-1β (0.05 ng/ml). […]

[2] = system: adhesion of polymorphonuclear cells to HUVEC cells; test: Adhesion assay, PMN to HUVEC, PAF stimulus; format: cell-based; details: Homo sapiens, 5 min
Protocol: as §1, §2, §3
a) The effect of cholesteryl butyrate nanoparticles prepared as in example 1, or of sodium butyrate, on adhesion of polymorphonuclear cells to HUVEC cells was examined in presence of the adhesion stimulus provided by PAF (10^−7M). […]

CCCC(=O)[O-].[Na+] [sodium butyrate]
inhibition at 10 µM [1]: 22%
pIC50 ([2]; read-out: IC50 (inhibition of adhesion)): 6.40
inhibition at 10 µM ([2]; read-out: inhibition of the adhesion): 74%
